The source of these data is the supplement of paper PMC11208160.
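Also: IS621 bridge recombinase in Escherichia coli cells against a fixed T5 target plasmid.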

A short description of the series: recombinant UMI read abundance after kanamycin selection (control-corrected) (log10(CPM+1)); higher = more efficient recombination; extreme values may be limits of the assay; sequences stand for … in AGTGCAGAGAAAATCGGCCAGTTTTCTCTGCCTGCAGTCCGCATGCCGTGGGACCCCTTGGGTTCTAACCTGTTGCCTAGATTTATGCAGCGGACTGCCTTTCTCCCAAAGTGATAAACCGG…AGGTTGGTTTCACT; site = the 11-nt donor. In outline:
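The measure is log10(CPM+1) for recombinant UMIs. These were PCR-amplified across the donor–target junction and sequenced after Escherichia coli carrying a donor and donor-binding-loop pair library and a target plasmid with T7-inducible IS621 bridge recombinase was plated on IPTG (0.07 mM) plus kanamycin or unselected. CPM were averaged over two replicates and scaled by control-derived factors.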
Take “CACCGTCCATGGACCGGTTTTCCCGGTAATCCGTATTTGAT (site TACCGTCCTAT)”: the “recombinant UMI read abundance (log10)” value came to 0.0173.
Next, “CACCTCTCATGGACCGGTTTTCCCGGTAATCCGTATTTGCT (site CACCTCTCTAG)”: 2.84; “CACCTGCCATGGACCGGTTTTCCCGGTAATCCGTATTTGTC (site CACCTGCCTGA)”: 0; “CACCTTACATGGACCGGTTTTCCCGGTAATCCGTATTTGGG (site CACCTTACTCC)”: 0.0575.
The value for “CACGCAGCATGGACCGGTTTTCCCGGTAATCCGTATTTGCT (site CAAGCAGCTAG)” was 0; that for “CACGCAGCATGGACCGGTTTTCCCGGTAATCCGTATTTGCT (site CACGCAGCTAG)” was 2.31.
Next, “CACGCAGCATGGACCGGTTTTCCCGGTAATCCGTATTTGCT (site CAGGCAGCTAG)”: 0.261; “CACGCAGCATGGACCGGTTTTCCCGGTAATCCGTATTTGCT (site CATGCAGCTAG)”: 0; “CACGCCGCATGGACCGGTTTTCCCGGTAATCCGTATTTGGT (site TTAAGTTCTTG)”: 0.
With “CACGCGTCATGGACCGGTTTTCCCGGTAATCCGTATTTGAG (site CACGCGTCTCT)”, the “recombinant UMI read abundance (log10)” value is 2.11.
Next, “CACGGCACATGGACCGGTTTTCCCGGTAATCCGTATTTGTT (site CACGGCACTAA)”: 1.6.
Next, “CACGGCACATGGACCGGTTTTCCCGGTAATCCGTATTTGTT (site CACGGCCCTAA)”: 0.00343; “CACGGCACATGGACCGGTTTTCCCGGTAATCCGTATTTGTT (site CACGGCGCTAA)”: 0.6.
Next, “CACGGCACATGGACCGGTTTTCCCGGTAATCCGTATTTGTT (site CACGGCTCTAA)”: 0.746; “CACGGCTCATGGACCGGTTTTCCCGGTAATCCGTATTTGTT (site CACGGCACTAA)”: 0.963.
Consider “CACGGCTCATGGACCGGTTTTCCCGGTAATCCGTATTTGTT (site CACGGCCCTAA)”, for which the “recombinant UMI read abundance (log10)” value was determined as 0.277.
Next, “CACGGCTCATGGACCGGTTTTCCCGGTAATCCGTATTTGTT (site CACGGCGCTAA)”: 0.0461.
In the case of “CACGGCTCATGGACCGGTTTTCCCGGTAATCCGTATTTGTT (site CACGGCTCTAA)”, the “recombinant UMI read abundance (log10)” value worked out at 3.26.
Take “CACGTACCATGGACCGGTTTTCCCGGTAATCCGTATTTGAA (site CACGTACCTTT)”: the “recombinant UMI read abundance (log10)” value came to 0.24.
Next, “CACGTCACATGGACCGGTTTTCCCGGTAATCCGTATTTGAG (site CACGTCACTCT)”: 1.36.
“CACTACGCATGGACCGGTTTTCCCGGTAATCCGTATTTGGA (site CACTACGCTTC)”: the “recombinant UMI read abundance (log10)” value is 1.41.
Take “CACTCATCATGGACCGGTTTTCCCGGTAATCCGTATTTGCC (site CACTCATCTGG)”: the “recombinant UMI read abundance (log10)” value amounted to 1.74.
The value for “CACTCATCATGGACCGGTTTTCCCGGTAATCCGTATTTGCC (site CACTCCTCTGG)” was 0.652; that for “CACTCATCATGGACCGGTTTTCCCGGTAATCCGTATTTGCC (site CACTCGTCTGG)” was 0; that for “CACTCATCATGGACCGGTTTTCCCGGTAATCCGTATTTGCC (site CACTCTTCTGG)” was 0.
Next, “CACTCCACATGGACCGGTTTTCCCGGTAATCCGTATTTGCC (site CACTCCACTGG)”: 2.65; “CACTCCACATGGACCGGTTTTCCCGGTAATCCGTATTTGCC (site CACTCCCCTGG)”: 0.
Next, “CACTCCACATGGACCGGTTTTCCCGGTAATCCGTATTTGCC (site CACTCCGCTGG)”: 1.8; “CACTCCACATGGACCGGTTTTCCCGGTAATCCGTATTTGCC (site CACTCCTCTGG)”: 1.26; “CACTCCGCATGGACCGGTTTTCCCGGTAATCCGTATTTGCC (site CACTCCACTGG)”: 2.05.
In the case of “CACTCCGCATGGACCGGTTTTCCCGGTAATCCGTATTTGCC (site CACTCCCCTGG)”, the “recombinant UMI read abundance (log10)” value is 0.
The value for “CACTCCGCATGGACCGGTTTTCCCGGTAATCCGTATTTGCC (site CACTCCGCTGG)” was 2.73.
The value for “CACTCCGCATGGACCGGTTTTCCCGGTAATCCGTATTTGCC (site CACTCCTCTGG)” was 1.36.
Regarding “CACTCCTCATGGACCGGTTTTCCCGGTAATCCGTATTTGAG (site CACTCCTCTCT)”, the “recombinant UMI read abundance (log10)” value was 0.883.
The value for “CACTCCTCATGGACCGGTTTTCCCGGTAATCCGTATTTGCA (site CACTCCTCTAG)” was 0.743; that for “CACTCCTCATGGACCGGTTTTCCCGGTAATCCGTATTTGCA (site CACTCCTCTCG)” was 1.09; that for “CACTCCTCATGGACCGGTTTTCCCGGTAATCCGTATTTGCA (site CACTCCTCTGG)” was 1.21.
As to “CACTCCTCATGGACCGGTTTTCCCGGTAATCCGTATTTGCA (site CACTCCTCTTG)”, the “recombinant UMI read abundance (log10)” value turned out to be 2.98.
The value for “CACTCCTCATGGACCGGTTTTCCCGGTAATCCGTATTTGCC (site AACTCCTCTGG)” was 0.563; that for “CACTCCTCATGGACCGGTTTTCCCGGTAATCCGTATTTGCC (site CAATCCTCTGG)” was 0.883.
In the case of “CACTCCTCATGGACCGGTTTTCCCGGTAATCCGTATTTGCC (site CACACCTCTGG)”, the “recombinant UMI read abundance (log10)” value was 1.79.
The value for “CACTCCTCATGGACCGGTTTTCCCGGTAATCCGTATTTGCC (site CACCCCTCTGG)” was 2.8.
Next, “CACTCCTCATGGACCGGTTTTCCCGGTAATCCGTATTTGCC (site CACGCCTCTGG)”: 0.524; “CACTCCTCATGGACCGGTTTTCCCGGTAATCCGTATTTGCC (site CACTACTCTGG)”: 1.17; “CACTCCTCATGGACCGGTTTTCCCGGTAATCCGTATTTGCC (site CACTCATCTGG)”: 0.425.
For the sequence “CACTCCTCATGGACCGGTTTTCCCGGTAATCCGTATTTGCC (site CACTCCACTGG)”, the “recombinant UMI read abundance (log10)” value came to 0.838.
The value for “CACTCCTCATGGACCGGTTTTCCCGGTAATCCGTATTTGCC (site CACTCCCCTGG)” was 0.105; that for “CACTCCTCATGGACCGGTTTTCCCGGTAATCCGTATTTGCC (site CACTCCGCTGG)” was 0.0071; that for “CACTCCTCATGGACCGGTTTTCCCGGTAATCCGTATTTGCC (site CACTCCTCTAG)” was 1.36.
Next, “CACTCCTCATGGACCGGTTTTCCCGGTAATCCGTATTTGCC (site CACTCCTCTCG)”: 0.00305.
The value for “CACTCCTCATGGACCGGTTTTCCCGGTAATCCGTATTTGCC (site CACTCCTCTGA)” was 0.906; that for “CACTCCTCATGGACCGGTTTTCCCGGTAATCCGTATTTGCC (site CACTCCTCTGC)” was 0.0424.
